Data taken from patent EP1025114B1, “3'-N-MODIFIED 6-O-SUBSTITUTED ERYTHROMYCIN KETOLIDE DERIVATIVES HAVING ANTIBACTERIAL ACTIVITY” (priority 1997, dated 1999).
Values after ≈ are worked out from the molar mass of the structure shown.

Experiments:
Experiment in all cases: In vitro antibacterial activity, agar dilution MIC
Assay type in all cases: cell-based
[1] = test system: Staphylococcus aureus 1775; details: Staphylococcus aureus 1775 (organism code GG); BHI agar, 35-37 °C, 20 to 24 hours; unit assumed
Protocol: (§1) Representative compounds of the present invention were assayed in vitro for antibacterial activity as follows: Twelve petri dishes containing successive aqueous dilutions of the test compound mixed with 10 mL of sterilized Brain Heart infusion (BHI) agar (Difco 0418-01-5) were prepared. Each plate was inoculated with 1:100 (or 1:10 for slow-growing strains, such as Micrococcus and Streptococcus) dilutions of up to 32 different microorganisms, using a Steers replicator block. […] In addition, a control plate, using BHI agar containing no test compound, was prepared and incubated at the beginning and end of each test.
(§2) An additional plate containing a compound having known susceptibility patterns for the organisms being tested and belonging to the same antibiotic class as the test compound was also prepared and incubated as a further control, as well as to provide test-to-test comparability.
(§3) After incubation, each plate was visually inspected. The minimum inhibitory concentration (MIC) was defined as the lowest concentration of drug yielding no growth, a slight haze, or sparsely isolated colonies on the inoculum spot as compared to the growth control.

[2] = test system: Micrococcus luteus ATCC 9341; details: Micrococcus luteus ATCC 9341 (organism code OO); BHI agar, 35-37 °C, 20 to 24 hours; unit assumed
Protocol: as §1, §2, §3

Escherichia coli DC-2 = Escherichia coli DC-2 (organism code SS); BHI agar, 35-37 °C, 20 to 24 hours; unit assumed
Protocol: as §1, §2, §3

[3] = test system: Micrococcus luteus ATCC 4698; details: Micrococcus luteus ATCC 4698 (organism code PP); BHI agar, 35-37 °C, 20 to 24 hours; unit assumed
Protocol: as §1, §2, §3

[4] = test system: Streptococcus Pheumoniae 5649; details: Streptococcus Pheumoniae 5649 (organism code ZZA); BHI agar, 35-37 °C, 20 to 24 hours; unit assumed
Protocol: as §1, §2, §3

[5] = test system: Mycobacterium smegmatis ATCC 114; details: Mycobacterium smegmatis ATCC 114 (organism code UU); BHI agar, 35-37 °C, 20 to 24 hours; unit assumed
Protocol: as §1, §2, §3

[6] = test system: Streptococcus pyogenes EES61; details: Streptococcus pyogenes EES61 (organism code LL); BHI agar, 35-37 °C, 20 to 24 hours; unit assumed
Protocol: as §1, §2, §3

[7] = test system: Streptococcus agalactiae CMX 508; details: Streptococcus agalactiae CMX 508 (organism code KK); BHI agar, 35-37 °C, 20 to 24 hours; unit assumed
Protocol: as §1, §2, §3

[8] = test system: Haemophilis Influenzae DILL AMP R; details: Haemophilis Influenzae DILL AMP R (organism code WW); BHI agar, 35-37 °C, 20 to 24 hours; unit assumed
Protocol: as §1, §2, §3

[9] = test system: Nocardia Asteroides ATCC9970; details: Nocardia Asteroides ATCC9970 (organism code VV); BHI agar, 35-37 °C, 20 to 24 hours; unit assumed
Protocol: as §1, §2, §3

[10] = test system: Streptococcus pyogenes 930; details: Streptococcus pyogenes 930 (organism code MM); BHI agar, 35-37 °C, 20 to 24 hours; unit assumed
Protocol: as §1, §2, §3

[11] = test system: Streptococcus Pheumoniae ATCC6303; details: Streptococcus Pheumoniae ATCC6303 (organism code XX); BHI agar, 35-37 °C, 20 to 24 hours; unit assumed
Protocol: as §1, §2, §3

[12] = test system: Enterococcus faecium ATCC 8043; details: Enterococcus faecium ATCC 8043 (organism code II); BHI agar, 35-37 °C, 20 to 24 hours; unit assumed
Protocol: as §1, §2, §3

[13] = test system: Streptococcus Pheumoniae GYR 1171; details: Streptococcus Pheumoniae GYR 1171 (organism code YY); BHI agar, 35-37 °C, 20 to 24 hours; unit assumed
Protocol: as §1, §2, §3

[14] = test system: Staphylococcus aureus A5177; details: Staphylococcus aureus A5177 (organism code BB); BHI agar, 35-37 °C, 20 to 24 hours; unit assumed
Protocol: as §1, §2, §3

Candida albicans CCH 442 = Candida albicans CCH 442 (organism code TT); BHI agar, 35-37 °C, 20 to 24 hours; unit assumed
Protocol: as §1, §2, §3

[15] = test system: Staphylococcus aureus A-5278; details: Staphylococcus aureus A-5278 (organism code CC); BHI agar, 35-37 °C, 20 to 24 hours; unit assumed
Protocol: as §1, §2, §3

Escherichia coli SS = Escherichia coli SS (organism code RR); BHI agar, 35-37 °C, 20 to 24 hours; unit assumed
Protocol: as §1, §2, §3

[16] = test system: Streptococcus bovis A-5169; details: Streptococcus bovis A-5169 (organism code JJ); BHI agar, 35-37 °C, 20 to 24 hours; unit assumed
Protocol: as §1, §2, §3

[17] = test system: Staphylococcus aureus CMX 553; details: Staphylococcus aureus CMX 553 (organism code FF); BHI agar, 35-37 °C, 20 to 24 hours; unit assumed
Protocol: as §1, §2, §3

[18] = test system: Staphylococcus epidermidis 3519; details: Staphylococcus epidermidis 3519 (organism code HH); BHI agar, 35-37 °C, 20 to 24 hours; unit assumed
Protocol: as §1, §2, §3

Escherichia coli JUHL = Escherichia coli JUHL (organism code QQ); BHI agar, 35-37 °C, 20 to 24 hours; unit assumed
Protocol: as §1, §2, §3

[19] = test system: Staphylococcus aureus ATCC 6538P; details: Staphylococcus aureus ATCC 6538P (organism code AA); BHI agar, 35-37 °C, 20 to 24 hours; unit assumed
Protocol: as §1, §2, §3

[20] = test system: Staphylococcus aureus CMX 642A; details: Staphylococcus aureus CMX 642A (organism code DD); BHI agar, 35-37 °C, 20 to 24 hours; unit assumed
Protocol: as §1, §2, §3

[21] = test system: Streptococcus pyogenes PIU 2548; details: Streptococcus pyogenes PIU 2548 (organism code NN); BHI agar, 35-37 °C, 20 to 24 hours; unit assumed
Protocol: as §1, §2, §3

[22] = test system: Staphylococcus aureus NCTC10649M; details: Staphylococcus aureus NCTC10649M (organism code EE); BHI agar, 35-37 °C, 20 to 24 hours; unit assumed
Protocol: as §1, §2, §3

[23] = test system: Streptococcus Pheumoniae 5979; details: Streptococcus Pheumoniae 5979 (organism code ZZ); BHI agar, 35-37 °C, 20 to 24 hours; unit assumed
Protocol: as §1, §2, §3

SMILES	MIC [1]	MIC [2]	MIC (Escherichia coli DC-2)	MIC [3]	MIC [4]	MIC [5]	MIC [6]	MIC [7]	MIC [9]	MIC [10]	MIC [11]	MIC [12]	MIC [13]	MIC [14]	MIC (Candida albicans CCH 442)	MIC [15]	MIC (Escherichia coli SS)	MIC [16]	MIC [17]	MIC [18]	also measured
CC[C@H]1OC(=O)[C@H](C)[C@@H](O[C@H]2C[C@@](C)(OC)[C@@H](O)[C@H](C)O2)[C@H](C)[C@@H](O[C@@H]2O[C@H](C)C[C@H](N(C)C)[C@H]2O)[C@](C)(O)C[C@@H](C)C(=O)[C@H](C)[C@@H](O)[C@]1(C)O [Ery. A, Erythromycin A, reference compound]	> 100 µg/mL	0.05 µg/mL (≈ 0.0681 µM)	> 100 µg/mL	0.2 µg/mL (≈ 0.273 µM)	16 µg/mL (≈ 21.8 µM)	3.1 µg/mL (≈ 4.22 µM)	0.05 µg/mL (≈ 0.0681 µM)	0.05 µg/mL (≈ 0.0681 µM)	0.1 µg/mL (≈ 0.136 µM)	> 100 µg/mL	0.06 µg/mL (≈ 0.0818 µM)	0.05 µg/mL (≈ 0.0681 µM)	0.06 µg/mL (≈ 0.0818 µM)	3.1 µg/mL (≈ 4.22 µM)	> 100 µg/mL	> 100 µg/mL	0.78 µg/mL (≈ 1.06 µM)	0.02 µg/mL (≈ 0.0273 µM)	0.39 µg/mL (≈ 0.531 µM)	0.39 µg/mL (≈ 0.531 µM)	MIC [8]: 4 µg/mL (≈ 5.45 µM); MIC (Escherichia coli JUHL): > 100 µg/mL; MIC [19]: 0.2 µg/mL (≈ 0.273 µM); MIC [20]: 0.39 µg/mL (≈ 0.531 µM); MIC [21]: 6.2 µg/mL (≈ 8.45 µM); MIC [22]: 0.39 µg/mL (≈ 0.531 µM)
C#CCN(C)[C@H]1C[C@@H](C)O[C@@H](O[C@@H]2[C@@H](C)C(=O)[C@@H](C)C(=O)O[C@H](CC)[C@@]3(C)OC(=O)N[C@@H]3[C@@H](C)C(=O)[C@H](C)C[C@@]2(C)OCC=Cc2cnc3ccccc3c2)[C@@H]1O [Example 10, Compound of Formula (II); R is -CH2CH=CH-(3-quinolyl), R^p is H, W is absent, R^w is H, R^1 is CH2-C≡CH, R^2 is CH3-]	> 100 µg/mL	0.1 µg/mL	> 100 µg/mL	0.39 µg/mL	0.25 µg/mL	1.56 µg/mL	0.01 µg/mL	0.01 µg/mL	0.2 µg/mL	6.2 µg/mL	0.03 µg/mL	0.05 µg/mL	0.03 µg/mL	0.39 µg/mL	> 100 µg/mL	> 100 µg/mL	1.56 µg/mL	0.02 µg/mL	0.2 µg/mL	0.2 µg/mL	MIC [23]: 32 µg/mL; MIC (Escherichia coli JUHL): > 100 µg/mL; MIC [19]: 0.2 µg/mL; MIC [20]: 0.2 µg/mL; MIC [21]: 0.39 µg/mL; MIC [22]: 0.1 µg/mL
CC[C@H]1OC(=O)[C@H](C)C(=O)[C@H](C)[C@@H](O[C@@H]2O[C@H](C)C[C@H](N(C)C3CC3)[C@H]2O)[C@](C)(OCC=Cc2cnc3ccccc3c2)C[C@@H](C)C(=O)[C@H](C)[C@H]2NC(=O)O[C@@]21C [Example 13, Compound of Formula (II); R is -CH2CH=CH-(3-quinolyl), R^p is H, W is absent, R^w is H, R^1 is cyclopropyl, R^2 is CH3]	> 100 µg/mL	0.39 µg/mL	> 100 µg/mL	0.78 µg/mL	0.25 µg/mL	3.1 µg/mL	0.1 µg/mL	0.2 µg/mL	3.1 µg/mL	> 100 µg/mL	0.03 µg/mL	0.39 µg/mL	0.03 µg/mL	3.1 µg/mL	50 µg/mL	> 100 µg/mL	3.1 µg/mL	0.2 µg/mL	1.56 µg/mL	3.1 µg/mL	MIC [23]: 16 µg/mL; MIC (Escherichia coli JUHL): > 100 µg/mL; MIC [19]: 1.56 µg/mL; MIC [20]: 1.56 µg/mL; MIC [21]: 0.39 µg/mL; MIC [22]: 3.1 µg/mL
CC[C@H]1OC(=O)[C@H](C)C(=O)[C@H](C)[C@@H](O[C@@H]2O[C@H](C)C[C@H](N(C)Cc3cccnc3)[C@H]2O)[C@](C)(OCC=Cc2cnc3ccccc3c2)C[C@@H](C)C(=O)[C@H](C)[C@H]2NC(=O)O[C@@]21C [Example 21, Compound of Formula (II); R is -CH2CH=CH-(3-quinolyl), R^p is H, W is absent, R^w is H, R^1 is CH2-(3-pyridyl), R^2 is CH3]	–	–	–	–	–	–	–	–	–	–	–	–	–	–	–	–	–	–	–	–	MIC [8]: 4 µg/mL
CC[C@H]1OC(=O)[C@H](C)C(=O)[C@H](C)[C@@H](O[C@@H]2O[C@H](C)C[C@H](N(C)Cc3cccc(O)c3)[C@H]2O)[C@](C)(OCC=Cc2cnc3ccccc3c2)C[C@@H](C)C(=O)[C@H](C)[C@H]2NC(=O)O[C@@]21C [Example 22, Compound of Formula (II); R is -CH2CH=CH-(3-quinolyl), R^p is H, W is absent, R^w is H, R^1 is CH2-(3-hydroxyphenyl), R^2 is CH3]	> 100 µg/mL	0.1 µg/mL	> 100 µg/mL	0.1 µg/mL	0.25 µg/mL	0.78 µg/mL	0.1 µg/mL	0.1 µg/mL	0.2 µg/mL	3.1 µg/mL	0.03 µg/mL	0.1 µg/mL	0.03 µg/mL	0.39 µg/mL	> 100 µg/mL	> 100 µg/mL	0.39 µg/mL	0.1 µg/mL	0.39 µg/mL	0.39 µg/mL	MIC [8]: 4 µg/mL; MIC (Escherichia coli JUHL): > 100 µg/mL; MIC [19]: 0.2 µg/mL; MIC [20]: 0.39 µg/mL; MIC [21]: 0.1 µg/mL; MIC [22]: 0.39 µg/mL
